Test results published in US20240425513A1, “OXAZOLE, OXADIAZOLE, AND INDOLE DERIVATIVES FOR THE INHIBITION OF USP28” (Carmot Therapeutics, Inc., priority 2021, published 2024).

These molecules were tested against His6 USP28 (Homo sapiens (Human), UniProt Q96RU2) (assay: Ubiquitin-Rhodamine 110 assay to determine USP28 IC50). Conditions: USP28 150 pM, Ub-Rho110 41 nM, 2 h pre-incubation with enzyme, fluorescence read.
Sequence of His6 USP28 (Q96RU2 whole entry): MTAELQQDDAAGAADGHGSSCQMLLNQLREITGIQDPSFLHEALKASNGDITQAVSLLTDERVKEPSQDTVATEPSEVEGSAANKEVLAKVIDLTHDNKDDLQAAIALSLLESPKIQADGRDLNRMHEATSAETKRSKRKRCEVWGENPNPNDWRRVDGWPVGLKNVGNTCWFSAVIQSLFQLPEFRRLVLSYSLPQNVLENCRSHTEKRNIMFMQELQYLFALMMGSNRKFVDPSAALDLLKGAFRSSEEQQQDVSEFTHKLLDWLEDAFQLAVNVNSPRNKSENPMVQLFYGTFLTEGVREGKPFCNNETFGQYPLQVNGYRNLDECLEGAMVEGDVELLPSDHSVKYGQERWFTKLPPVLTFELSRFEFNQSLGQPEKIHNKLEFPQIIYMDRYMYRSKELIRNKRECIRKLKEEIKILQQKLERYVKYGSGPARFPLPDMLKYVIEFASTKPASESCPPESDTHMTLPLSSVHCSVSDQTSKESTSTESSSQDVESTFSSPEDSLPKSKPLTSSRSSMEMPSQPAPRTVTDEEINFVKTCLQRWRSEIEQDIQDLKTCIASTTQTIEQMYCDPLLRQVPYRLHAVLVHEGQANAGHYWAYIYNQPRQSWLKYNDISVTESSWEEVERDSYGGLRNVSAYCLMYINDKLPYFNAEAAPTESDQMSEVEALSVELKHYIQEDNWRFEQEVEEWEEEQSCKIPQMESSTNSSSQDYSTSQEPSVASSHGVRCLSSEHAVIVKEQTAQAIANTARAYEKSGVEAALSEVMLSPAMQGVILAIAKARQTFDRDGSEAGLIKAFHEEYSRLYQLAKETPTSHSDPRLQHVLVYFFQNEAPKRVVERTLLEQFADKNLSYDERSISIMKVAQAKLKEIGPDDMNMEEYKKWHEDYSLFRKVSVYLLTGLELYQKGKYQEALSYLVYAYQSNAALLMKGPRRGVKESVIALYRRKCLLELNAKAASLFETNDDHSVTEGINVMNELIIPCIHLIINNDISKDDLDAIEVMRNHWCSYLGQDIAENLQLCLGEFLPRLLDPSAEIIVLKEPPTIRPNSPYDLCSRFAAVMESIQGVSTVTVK
Format: biochemical
Description: Example 21. Ubiquitin-Rhodamine 110 Assay to Determine USP28 IC50
Each assay was performed in a final volume of 8 μl in assay buffer containing 10 mM HEPES pH 7.3 ((1 M, pH 7.3 solution, (VWR J848), 100 mM NaCl (5 M, Corning 46-032-CV), 0.01% Triton X-100 (Sigma #T8787), 3.5 mM DTT (1 M, Sigma #43819) and 0.00375% BSA (10%, Calbiochem, #126609)). The assay buffer pH was adjusted to 7.5 using 1 N NaOH (JT Baker, #5000-03). Stock compounds were stored at −80° C. as a 25 mM in DMSO solution along with their respective 20 point 2 fold serial dilutions. For the dose responses, stock compound plates were allowed to come to room temperature the day of the assay. […] of the serial dilution series were pre stamped into assay plates (Black, high base, medium binding, Greiner #782076) for a final top screening concentration of 125 μM (DMSO final concentration=0.5%). Enzyme (His6 USP28, BostonBiochem, #E-570) concentration and incubation times were optimized for the maximal signal to background while maintaining the initial velocity conditions at a fixed substrate concentration. The final concentration of the enzyme in the assay was 150 pM. Final substrate (Ub-Rhol10, Ubiquitin-Rhodamine 110, UBPBio, #M3020) concentration was 41 nM. 2 μl of 4× enzyme was added to assay plates (pre stamped with compound) and incubated for 2 h at room temperature. […] was subsequently added to the assay plates and incubated for 2 h at room temperature. Fluorescence was then read on the Envision (Excitation 485 nm and Emission at 535 nm, Perkin Elmer).
CN[C@H]1CCN(C(=O)c2ccc(COc3ccc(-c4nc(Cc5cccc(Cl)c5)oc4C)cc3)nc2)C1 [Compound 35, (3S)-1-{6-[(4-{2-[(3-Chlorophenyl)methyl]-5-methyl-1,3-oxazol-4-yl}phenoxy)methyl]pyridine-3-carbonyl}-N-methylpyrrolidin-3-amine] was tested, and the IC50 was < 0.05 µM.
CN[C@@H]1CCN(C(=O)c2ccc(COc3ccc(-c4nc(Cc5cccc(Cl)c5)oc4C)cc3)nc2)C1 [Compound 36, (3R)-1-{6-[(4-{2-[(3-Chlorophenyl)methyl]-5-methyl-1,3-oxazol-4-yl}phenoxy)methyl]pyridine-3-carbonyl}-N-methylpyrrolidin-3-amine] was tested, and the IC50 was < 0.05 µM.
In the case of Cc1oc(Cc2cccc(Cl)c2)nc1-c1ccc(OCc2ccc(C(=O)N3CCC(N)CC3)cn2)cc1 [Compound 38, 1-{6-[(4-{2-[(3-Chlorophenyl)methyl]-5-methyl-1,3-oxazol-4-yl}phenoxy)methyl]pyridine-3-carbonyl}piperidin-4-amine], the IC50 is reported as < 0.05 µM.
With CN[C@H]1CCCN(C(=O)c2ccc(COc3ccc(-c4nc(Cc5cccc(Cl)c5)oc4C)cc3)nc2)C1 [Compound 40, (3S)-1-{6-[(4-{2-[(3-Chlorophenyl)methyl]-5-methyl-1,3-oxazol-4-yl}phenoxy)methyl]pyridine-3-carbonyl}-N-methylpiperidin-3-amine] the IC50 was < 0.05 µM.
In the case of CN[C@@H]1CCCN(C(=O)c2ccc(COc3ccc(-c4nc(Cc5cccc(Cl)c5)oc4C)cc3)nc2)C1 [Compound 41, (3R)-1-{6-[(4-{2-[(3-Chlorophenyl)methyl]-5-methyl-1,3-oxazol-4-yl}phenoxy)methyl]pyridine-3-carbonyl}-N-methylpiperidin-3-amine], the IC50 is reported as < 0.05 µM.
For CC(=O)N1CCN(C(=O)c2cc3cc(OCc4ccccc4)ccc3[nH]2)C[C@@H]1C(=O)N[C@H]1C[C@@H](C)N(C#N)C1 [Compound 42], the IC50 was 0.05 to 0.5 µM.
Cc1oc(Cc2cccc(Cl)c2)nc1-c1ccc(COc2ccc(C(=O)N3CCC(Cc4ncc[nH]4)CC3)cc2)cc1 [Compound 43, (4-((1H-Imidazol-2-yl)methyl)piperidin-1-yl)(4-((4-(2-(3-chlorobenzyl)-5-methyloxazol-4-yl)benzyl)oxy)phenyl)methanone] was tested, and the IC50 was < 0.05 µM.
For Cc1oc(Cc2cccc(Cl)c2)nc1-c1ccc(COc2ccc(C(=O)N(C)CCN3CCCNC3=O)cc2)cc1 [Compound 44, 4-[(4-{2-[(3-Chlorophenyl)methyl]-5-methyl-1,3-oxazol-4-yl}phenyl)methoxy]-N-methyl-N-[2-(2-oxo-1,3-diazinan-1-yl)ethyl]benzamide], the IC50 was < 0.05 µM.
